The test system of assay [1] is metastasising pancreatic carcinoma. Nature of the assay: Nucleosome concentration in serum (Cell Death Detection plus ELISA) of a patient during chemotherapy. The format is in vivo. Particulars: one patient, FIG. 9; for nucleosome concentration in the serum after start of new therapy scheme: combination folic acid 300 mg/m^2 and 5-fluorouracil 500 mg/m^2 on each of days 1 to 5, only a partial decrease afterwards; for nucleosome concentration in the serum at the beginning of a cycle: combination Gemcitabine 1000 mg/m^2 (day 1, 8, 15) and Cisplatin 50 mg/m^2 (day 1, 15), then decreased slowly. The method, then: The Cell Death Detection^plus ELISA (Boehringer Mannheim, Cat. No. 1 774 425) is based on the quantitative sandwich enzyme immunoassay principle. Two monoclonal mouse antibodies are used which are directed against DNA and histones. The test can be carried out with cytoplasmic lysates, culture supernatants, plasma, serum and other body fluids and allows a specific detection of mononucleosomes and oligonucleosomes. The description given here applies to measurements in liquid media:
A 20 μl aliquot of the material to be tested is pipetted into a well of a streptavidin-coated microtitre plate (MTP). 80 μl of an immunoreagent composed of biotinylated anti-histone antibodies, peroxidase-labelled anti-DNA antibodies and incubation buffer (1% BSA, 0.5% Tween, 1 mM EDTA in PBS) is added, covered with an adhesive foil and incubated for 2 hours on a MTP shaker (500 rpm). During this incubation period the anti-histone antibody reacts with the histone component of the nucleosomes and immobilizes the complex via the biotin on the streptavidin-coated microtitre plate. In addition the anti-DNA antibody binds to the DNA component of the nucleosomes. In this process ds as well as ss DNA is recognized. After removing the antibody that is still unbound by washing three times with 300-400 μl incubation buffer in each case, the immobilized complexes are incubated with 100 μl ABTS (2,2′-azino-di(3-ethyl-benzthiazoline sulfonate), the MTP is sealed with an adhesive foil and shaken at 250 rpm. The substrate reacts with the peroxidase label of the anti-DNA antibody and causes a colour change that is proportional to these antibodies. After an adequate colour development period it is photometrically quantified at d=405 nm against the substrate solution as a blank (reference wavelength d=492 nm).
Therefore absolute concentration data are not used and a scale of so-called AUs (arbitrary units) is introduced. 1000 AU equates with the highest standard level (2500 mA after 30 min); the scale is linear. This therefore takes into account the lack of knowledge about the ratio of mononucleosomes to oligonucleosomes and the resulting variability concerning the amount of binding sites of the antibodies while at the same time increasing the comparability between the tests.
After thawing attention must be paid to adjustment to room temperature and careful homogenization of the sample material. The serum samples are diluted 1:4 with incubation buffer (20 μl serum, 60 μl incubation buffer) and subsequently used in the test.
The nucleosome content was measured in patients under chemotherapy before therapy and on the second and fourth day and one week after administration of the first dose and in addition weekly or before the start of the next treatment cycle.

For assay [2] the test system is unchanged. Nature of the assay: Clinical course of the patient during chemotherapy. Type of assay: in vivo. Particulars: one patient, FIG. 9. An excerpt:
The effectiveness of tumour therapy can be determined by means of the remission rate on the basis of image generating processes (X-ray, computer tomography). By definition a complete remission is understood as the complete disappearance of the tumour for at least eight weeks and partial remission means a regression of the tumour manifestations by more than 50% with regard to their volume; no change reflects the state between a 50% decrease and a 25% increase of the tumour mass; progression denotes a progression of more than 25% (UICC criteria).

[3] abbreviates: combination folic acid and 5-fluorouracil, continuous increase of CEA.
Where [4] appears, read: combination Gemcitabine and Cisplatin.

Take `O=c1[nH]cc(F)c(=O)[nH]1` [5-fluorouracil]: the “nucleosome concentration in the serum after start of new therapy scheme” value in assay [1] was “rapid increase”. Besides, in assay [2] (setting [3]), the “clinical course under therapy” value was “progressive course”.
Turning to `Nc1nc2ncc(CNc3ccc(C(=O)N[C@@H](CCC(=O)O)C(=O)O)cc3)nc2c(=O)[nH]1` [folic acid], the “nucleosome concentration in the serum after start of new therapy scheme” value in assay [1] is listed as “rapid increase”. In addition, the “clinical course under therapy” value in assay [2] (setting [3]) was “progressive course”.
On to `N.N.[Cl][Pt][Cl]` [Cisplatin], for which the “nucleosome concentration in the serum at the beginning of a cycle” value in assay [1] is “increased rapidly”. Besides, the “clinical course under therapy” value in assay [2] (setting [4]) was “clinical progressive deterioration”.
For `Nc1ccn([C@@H]2O[C@H](CO)[C@@H](O)C2(F)F)c(=O)n1` [Gemcitabine] the same measures were “increased rapidly” and “clinical progressive deterioration”.

The values above are taken from patent publication US7759071B2, “Determination of apoptotic products in tumor patients undergoing therapy” (Roche Diagnostics, priority 1998, dated 2010).
